According to PMC9797212, “Surface Modification of Erythrocytes with Lipid Anchors: Structure–Activity Relationship for Optimal Membrane Incorporation, in vivo Retention, and Immunocompatibility” (Advanced nanobiomed research, 2022):

Tests used:
[1] = Lipid stability in RBCs in mouse serum in vitro; type: in vitro ADME, mouse (BALB/c serum); conditions: 3 h; for loss in MFI of labeled RBCs: 37 °C
Method: The nature of lipid linker affects in vivo retention. […] To compare the stability of different lipids in vitro, we measured the fluorescence of labeled RBCs after incubation in mouse serum for 3 h.
Mouse RBC labeled with lipids were incubated in mouse serum at 37 °C for up to 3 h. Intact RBCs were removed by centrifugation at 3000 g for 10 min at room temperature. RBCs were washed three times in 1% BSA/PBS to remove the remaining serum, and the labeling (MFI) was determined by flow cytometry as described above. The supernatant was analyzed for fluoresce released from RBC by dotting 2 μL on 0.45 μm nitrocellulose membrane and scanning with a Bio-Rad gel imager for Cy3 fluorescence at 540 nm excitation/560 nm emission. For TLC, 10 parts of methanol were added to 1 part of serum, and the tubes were centrifuged at 500 g for 10 min to pellet the protein fraction. The methanol phase was carefully collected, applied on TLC Silica Gel 60 F254 (EMD Millipore), and separated on the mobile phase chloroform: methanol (9:1) with 0.1% trifluoroacetic acid. The plates were scanned with a Bio-Rad gel imager for Cy3 fluorescence.

[2] = In vivo circulation of labeled RBCs and lipid retention, flow cytometry, BALB/c mice; conditions: for half-life: both sexes, mouse, whole blood (RBCs), iv, mono- or biexponential decay, summary value, read-out: MFI half life, estimated (extrapolated) terminal (converted)
Method: Next, we investigated in vivo retention and longevity of modified RBCs. We used the lipids with the highest labeling efficiency (Figure 2C,D) for in vivo studies: DiI-C18, DiI-C18:2, DiI-C12, Cy3-C12, DiI-PEG3400Mtz, Cy3-DSPE, and Cy3-cholesterol. Labeled RBCs were injected intravenously in BALB/c mice and the circulating levels (percent positive RBCs) and the stability of the lipid (MFI of the labeled population) were analyzed by flow cytometry (Figure 3A). Representative dot plots for DiI-C18 and DiI-C18:2 (Figure 3B) show a distinct population of labeled RBCs at both 1 min (between 9% and 13% of total RBCs) and 3 weeks postinjection. We found differences between lipids in terms of both percent RBC and percent MFI (Figure 3C,D). […] DiI-C18 RBCs had ≈40 days circulation span and only about 33% decrease in MFI at Day 20. […] Cy3-cholesterol RBCs had ≈30 days circulation span, but MFI dropped below 35% at Day 22.
The University of Colorado Institutional Animal Care and Use Committee (IACUC) approved animal experiments (protocol 103 913(11)1D). Mice were treated according to regulations provided by the Office of Laboratory Animal Resources at the University of Colorado. BALB/c and NOD/LtSz-SCID IL2Rγc null (NSG) mice were bred in-house. Mice of 8–10 weeks age (males and females) were used for experiments. Mice were injected intravenously with ≈10^9 RBCs (each strain was injected with RBCs derived from the same strain). At different time intervals, ≈20 μL of blood were obtained with heparinated haematocrit capillary (ThermoFisher) via periorbital plexus. RBCs were resuspended at ≈0.5 million mL^−1 in 1%BSA/PBS and analyzed by Guava easyCyte HT flow cytometer (20 000 RBCs were counted after gating out platelets and leukocytes). The percentage of positive RBCs and mean fluorescence intensity (MFI) of labeled RBCs (if more than 1% of total RBCs) was determined using FlowJo software v.10 (BD Life Sciences, Ashland, OR). For pharmacokinetic analysis, the flow data were normalized to 100% injected dose (MFI and percent labeled RBCs at 1 min) and fit into mono or biexponential decay using the pharmacokinetic modeling software Boomer.[21]

human RBCs = assay: Labeling of human RBCs with lipids, flow cytometry; type: cell-based; conditions: lipids at 25 μM, 1 h; for percentage of labeled human RBCs (in words) / MFI of labeled human RBCs, fold higher than the rest of the lipids: flow cytometry
Description: We acquired commercially available dialkyl indocarbocyanine lipids DiI-C18, DiI-C18:2, DiI-C16, DiI-C12 and synthesized additional headgroup derivatives of DiI-C18: DiI-amine, DiI-PEG5000, and DiI-PEG3400-methyltetrazine (Mtz). In addition, we prepared diacyl glycerol derivatives of Cy3: Cy3-C18, Cy3-C18:1, Cy3-C16, Cy3-C14, Cy3-C12, phospholipid derivative Cy3-distearoyl phosphatidylethanolamine (Cy3-DSPE), and Cy3-cholesterol. This library covers different lipid lengths, lipid types, and also headgroup-tail linkages. In addition, the library includes a limited number of headgroup derivatives relevant to drug delivery. Thus, PEGylated lipids have importance for erythrocyte PEGylation for blood camouflaging. Mtz is a click chemistry group that enables versatile modifications with biomolecules,[13] but also serves as a mimic of a small molecule payload (Mw 230 Da). To determine the labeling efficiency, we used fresh human RBCs from two healthy donors. RBCs were incubated with lipids at 25 μM for 1 h and washed and analyzed with flow cytometry for the percentage of labeled cells and mean fluorescence intensity (MFI). […] Select lipids were then used to label mouse RBCs. The data in Figure 2C,D show generally higher mouse RBC labeling efficiency (MFI and percent RBCs) than human RBCs. […] Finally, we checked the linearity of the Cy3 group signal when incorporated in RBCs.
Fresh human RBCs were obtained from discarded leukodepletion filters after processing sodium citrate anticoagulated donor blood at the Children’s Hospital Colorado Blood Donation Center. Institutional review board approval was not required for discarded material and anonymous samples. RBCs were eluted from leukodepletion filters by applying ACD buffer in the direction of the flow and were used within 2 h after blood collection. Sodium EDTA-anticoagulated mouse blood was collected from female or male BALB/c and NSG mice (8–10 weeks of age) via cardiac puncture, according to the animal protocol approved by the University of Colorado IACUC). Human RBCs were washed in ACD buffer and mouse RBC were washed in 1% BSA/PBS at room temperature at 3,000 g, total 3 times. Erythrocyte suspension (≈10^10/mL) was incubated with 25 μM lipids in ACD buffer (human RBCs) or 1% BSA/PBS (mouse RBCs) at 37 °C for 1 h and washed three times in ACD buffer or 1% BSA/PBS as described above. Labeling efficiency were determined by Guava easyCyte HT flow cytometer (Luminex Corp, Seattle, WA) as described later.

mouse RBCs = assay: Labeling of mouse RBCs with lipids, flow cytometry; type: cell-based, mouse (BALB/c); conditions: lipids at 25 μM, 1 h
Description: We acquired commercially available dialkyl indocarbocyanine lipids DiI-C18, DiI-C18:2, DiI-C16, DiI-C12 and synthesized additional headgroup derivatives of DiI-C18: DiI-amine, DiI-PEG5000, and DiI-PEG3400-methyltetrazine (Mtz). In addition, we prepared diacyl glycerol derivatives of Cy3: Cy3-C18, Cy3-C18:1, Cy3-C16, Cy3-C14, Cy3-C12, phospholipid derivative Cy3-distearoyl phosphatidylethanolamine (Cy3-DSPE), and Cy3-cholesterol. This library covers different lipid lengths, lipid types, and also headgroup-tail linkages. In addition, the library includes a limited number of headgroup derivatives relevant to drug delivery. Thus, PEGylated lipids have importance for erythrocyte PEGylation for blood camouflaging. Mtz is a click chemistry group that enables versatile modifications with biomolecules,[13] but also serves as a mimic of a small molecule payload (Mw 230 Da). […] RBCs were incubated with lipids at 25 μM for 1 h and washed and analyzed with flow cytometry for the percentage of labeled cells and mean fluorescence intensity (MFI). […]
Fresh human RBCs were obtained from discarded leukodepletion filters after processing sodium citrate anticoagulated donor blood at the Children’s Hospital Colorado Blood Donation Center. […] Labeling efficiency were determined by Guava easyCyte HT flow cytometer (Luminex Corp, Seattle, WA) as described later.

[3] = test system: mouse peritoneal macrophages; assay: Uptake of labeled RBCs by peritoneal macrophages; type: cell-based; conditions: 24 h incubation, fluorescent microscopy
Method: Fresh nonactivated macrophages were isolated and seeded in culture for 24 h in a 96-well culture-treated plate (Corning Inc.) as described.[19] On the next day, labeled RBCs were added (≈1 × 10^5 RBC/well) in triplicates, and macrophages were incubated for 24 h. In some experiments, PMF were prelabeled with 10 μM DiO for 2 h before addition of RBCs. After incubation, macrophages were washed with PBS 4 times to remove nonbound RBCs, fixed with 4% formalin, and stained with nuclear stain Hoechst. Cells were imaged under 100× magnification with Zeiss Axio Observer 5 epifluorescent microscope, and ≈7 microscopic fields were acquired. To verify RBC localization outside the cells, a Nikon Eclipse AR1HD inverted confocal microscope with 405, 488, 561, and 640 nm excitation lasers and corresponding emission filters was used. The percentage of DiI+ cells and rosette+ cells per field was determined manually and plotted with Prism.

[4] = set-up: method as in PMID 33532572; conditions: 48 h postinjection in mice ref 8a; cited from earlier work
[5] = Organ biodistribution of labeled RBCs (NIR imaging, confocal microscopy of liver and spleen); conditions: Day 40 (DiI-C18 RBCs), Day 29 (DiI-PEG3400Mtz RBCs)
Method: To determine the location of the label in the clearance organs, we imaged freshly excised livers and spleens of BALB/c mice injected with DiI-C18 RBCs and DiI-PEG3400Mtz RBCs (Day 40 and Day 29, respectively) with confocal microscope.
When labeled RBCs reached <1% of total RBCs (usually 10% or less of the injected dose), mice were injected with FITC-lectin and Hoechst and sacrificed with carbon dioxide (CO2) followed by cardiac perfusion. Fresh livers and spleens were placed on glass slides and imaged with Nikon Eclipse AR1HD inverted confocal microscope with Plan Apo 10 objective as described.[18]

[6] = set-up: species or system BALB/c mice; conditions: mouse
Method: Figure 6. Biodistribution and immune recognition of RBCs. A) RBCs labeled with DiR were injected in BALB/c mice and blood fluorescence was monitored with NIR scanner Li-COR Odyssey. […] D) Confocal microscopy images of fresh livers and spleens of mice injected with DiI-C18 and DiI-PEG3400Mtz (after in vivo labeling of blood vessels and nuclei with FITC-lectin and Hoechst). The lipid accumulates in extrasinusoidal cells in the spleen and predominantly in sinusoidal cells in the liver (i.e., endothelium and Kupffer cells). […] E) RBCs were incubated with fresh peritoneal macrophages for 24 h. […] F) Quantification of percent cells (per field) that contain intracellular DiI. G) Quantification of percent cells (per field) that contain DiI+ rosettes. P-value: ****0.0001; ***<0.001 2-sided t-test, alpha 0.05.

## CCCCCCCCCCCC(=O)OCC(CNC(=O)CCCCC[N+]1=C(/C=C/C=C2/N(C)c3ccccc3C2(C)C)C(C)(C)c2ccccc21)OC(=O)CCCCCCCCCCC (stereo not drawn) [Cy3-C12]
[1]
  loss in MFI of labeled RBCs: less than 15%
[2]; Day 3, 1 min postinjection = 100%
  drop in MFI of labeled RBCs: 85%
[2]; i.v., BALB/c
  circulation and retention of labeled RBCs (in words): disappeared within a few days postinjection
Human RBCs
  percentage of labeled human RBCs (in words): highest percentage of labeled human RBCs

## CCCCCCCCCCCCCC(=O)OCC(CNC(=O)CCCCC[N+]1=C(/C=C/C=C2/N(C)c3ccccc3C2(C)C)C(C)(C)c2ccccc21)OC(=O)CCCCCCCCCCCCC (stereo not drawn) [Cy3-C14]
Human RBCs
  percentage of labeled human RBCs (in words): highest percentage of labeled human RBCs

## CCCCCCCCCCCCCCCCCC(=O)OC[C@H](COP(=O)(O)OCCNC(=O)CCCCC[N+]1=C(/C=C/C=C2/N(C)c3ccccc3C2(C)C)C(C)(C)c2ccccc21)OC(=O)CCCCCCCCCCCCCCCCC [Cy3-DSPE, Cy3-distearoyl phosphatidylethanolamine]
[1]
  loss in MFI of labeled RBCs: over 60%
  TLC analysis of serum supernatant: presence of intact Cy3-DSPE along with some degradation products
  fluorescence released in serum from labeled RBCs, relative to DiI-C18 RBCs: five times more fluorescence released in serum
[2]; i.v., BALB/c
  circulation and retention of labeled RBCs (in words): disappeared within a few days postinjection
Human RBCs
  human RBC labeling efficiency: 100%
  MFI of labeled human RBCs, fold higher than the rest of the lipids: 2–3 fold
  percentage of labeled human RBCs (in words): highest percentage of labeled human RBCs

## CC(C)CCCC(C)C1CCC2C3CC=C4CC(OC(=O)CCCCC[N+]5=C(C=CC=C6N(C)c7ccccc7C6(C)C)C(C)(C)c6ccccc65)CCC4(C)C3CCC12C (stereo not drawn) [Cy3-cholesterol]
[1]
  loss in MFI of labeled RBCs: less than 15%
[2]; Day 22, 1 min postinjection = 100%
  MFI of labeled RBCs, percent of initial: below 35%
[2]; BALB/c
  half-life: 12.5 days
[2]; i.v., BALB/c
  circulation and retention of labeled RBCs (in words): longest circulation and retention

## CCCCCCCCCCCCN1/C(=C/C=C/C2=[N+](CCCCCCCCCCCC)c3ccccc3C2(C)C)C(C)(C)c2ccccc21 [DiI-C12]
[1]
  loss in MFI of labeled RBCs: less than 15%
[2]; BALB/c
  half-life: 3 days
[2]; i.v., BALB/c
  decrease in MFI of labeled RBCs (in words): much faster decrease in MFI than DiI-C18 and Cy3-cholesterol
Human RBCs
  human RBC labeling efficiency (in words): highest efficiency
  MFI of labeled human RBCs, fold higher than the rest of the lipids: 2–3 fold
  percentage of labeled human RBCs (in words): highest percentage of labeled human RBCs
Mouse RBCs
  mouse RBC labeling efficiency (in words): highest efficiency

## CCCCCCCCCCCCCCCCN1/C(=C/C=C/C2=[N+](CCCCCCCCCCCCCCCC)c3ccccc3C2(C)C)C(C)(C)c2ccccc21 [DiI-C16]
Human RBCs
  MFI of labeled human RBCs, fold higher than the rest of the lipids: 2–3 fold

## CCCCCCCCCCCCCCCCCCN1/C(=C/C=C/C2=[N+](CCCCCCCCCCCCCCCCCC)c3ccccc3C2(C)C)C(C)(C)c2ccccc21 [DiI-C18]
[3]
  macrophages with intracellular Cy3 fluorescence: mostly intracellular uptake
[1]
  loss in MFI of labeled RBCs: less than 15%
[2]; Day 20, 1 min postinjection = 100%
  decrease in MFI of labeled RBCs: about 33%
[2]; BALB/c
  half-life: > 80 days
[2]; i.v., BALB/c
  circulation and retention of labeled RBCs (in words): longest circulation and retention
[4]
  lipid present in the RBC membrane: up to 90%
Human RBCs
  human RBC labeling efficiency: 28%
  MFI of labeled human RBCs, fold higher than the rest of the lipids: 2–3 fold
[5]
  location of Cy3 signal in liver and spleen, confocal microscopy: predominant accumulation of Cy3 signal in extrasinusoidal spleen cells and some accumulation in the liver sinusoids

## CCCCCCCCCCCCCCCCCCN1/C(=C/C=C/C2=[N+](CCCCCCCCCCCCCCCCCC)c3ccc(CN)cc3C2(C)C)C(C)(C)c2ccccc21 [DiI-amine]
Human RBCs
  labeling efficiency of human RBCs, fold lower than the parent DiI-C18: ≈ 4 fold

## CCCCCCCCCCCCCCCCCCN1C(=CC=CC=CC=CC2=[N+](CCCCCCCCCCCCCCCCCC)c3ccccc3C2(C)C)C(C)(C)c2ccccc21.[I-] [DiR-C18, 1,1′-Dioctadecyl-3,3,3′,3′-Tetramethylindotricarbocyanine Iodide]
[6]
  in vivo life span of labeled RBCs: over 30 days
[6]; in vivo
  terminal half life of labeled RBCs: 7.3 days
